Test results: US8173620B2, “BHQ-caged nucleotide probes photolysable by two-photon excitation” (University of Georgia Research Foundation, Inc., priority 2008, dated 2012)
Where two headings read alike, the source gives them in different places. Marks after values point to notes of the source that are not given here.

What was measured:
[1] = Dark hydrolysis rate / stability in the dark; assay type: physicochemical; conditions: KMOPS, pH 7.2, dark
Procedure: Substrates were dissolved in KMOPS and stored in the dark at room temperature. Samples for HPLC analysis were carried out periodically and injected as described for one-photon photolysis. Data were fit to single exponential decay curves from which the time constant, τ, was calculated.

[2] = UV absorption of quinoline chromophores in KMOPS buffer; assay type: physicochemical; conditions: pH 7.2
Excerpt: It has two absorptive bands beyond 300 nm, one at 320 nm and the other at 370 nm. The 370 nm absorption band arises from the phenolate form of the BHQ skeleton, and the 320 nm absorption band is from the phenol form. […] The λmax of BHQ-ATP (159) is 376 nm, and the extinction coefficient at this wavelength is 1300 M^−1cm^−1. […]

[3] = Two-photon uncaging action cross-section (740 nm, Tsien's method, fluorescein reference); assay type: physicochemical; conditions: for δu (two-photon uncaging action cross-section): KMOPS, pH 7.2, measured at 740 nm; for λa (calculated 2-photon absorbance cross-section): calculated from du = da × Qu
Procedure: BHQ-ATP (159) (100 μM in KMOPS, pH=7.2) was photolyzed with a Chameleon Ultra II laser at 740 nm in 25-μL aliquots. The irradiation time intervals of the pulsed laser were 0, 5, 10, 20, and 40 min. Three samples of each time interval were collected and analyzed by HPLC using the same method as in the one-photon photolysis. Using Tsien's method of determining two-photon uncaging action cross-section with a fluorescence reference solution, the two-photon uncaging action cross-section of BHQ-ATP (159) was measured to be 0.17 GM. The ATP yield was about 40%.
Measurements were carried out in microcuvettes (10×1×1 mm illuminated dimensions) with an effective filling volume of 20 μL (26.10F-Q-10, Starna, Atascadero, Calif.). The IR laser used was from a fs-pulsed and mode-locked Ti:sapphire laser (Mira 900 pumped by a Verdi, Coherent, Santa Clara, Calif. or a Chameleon Ultra II) focused on the center of the cuvette chamber with a 25-mm focal length lens optimized for IR lasers (06LXP003/076, Melles-Griot, Irvine, Calif.). The pulse width of the laser was 144 fs for Mira 900. The laser beam was attenuated by passing the beam through an electro-optical modulator or a ½-waveplate and polarizing beamsplitter cube so that the average power exiting the apparatus was 300-350 mW.
Successive aliquots (25 μL) of each caged compound in KMOPS were placed into the cuvette and irradiated for 0, 5, 10, 20, and 40 min. Each aliquot was analyzed by HPLC to determine the concentration of the remaining caged compound as described for determining the uncaging quantum efficiency for one photon photolysis. The progress curves were plotted, and fitted to a single exponential decay curve. The formation of ATP was monitored, plotted, and fitted to a single exponential rise to max curve. For compounds 1c, 2a, 2b, and 3 (τdark<50 h), a correction was made for background dark hydrolysis that occurred while the irradiated samples were waiting for HPLC analysis. The fraction of the decay from hydrolysis in the dark was calculated using the measured dark hydrolysis rate and the waiting time from the end of the experiment until the HPLC injection. This value was subtracted from the total decay (hydrolysis+photolysis) measured by HPLC.
The two-photon uncaging cross-section (δu) was determined using Tsien's method, (as described by Furuta et al., (1999) Proc. Natl. Acad. Sci. U.S.A. 96: 1193-1200 (incorporated herein by reference in its entirety), referencing to fluorescein, a compound with a known fluorescence quantum yield (Qf=0.9) and absorbance cross-section (δa=30 GM at 740 nm), using the following equation: […]
Np is the number of molecules photolyzed per unit time (molecules/s, determined by HPLC analysis of the reaction); φ is the collection efficiency of the detector (SED033 on an IL-1700, International Light, Newburyport, Mass.) used to measure the fluorescence of fluorescein emitted at a right angle to the beam and passed though a 535/45 nm bandpass filter; CF is the concentration of the fluorescein standard (mol/L); <F(t)> is the time averaged fluorescent photon flux (photons/s) of the fluorescein standard collected by the detector; and CS is the initial concentration of the caged compound (mol/L). The light-induced uncaging of —OAc from a variety of caging moieties is illustrated in FIG. 23.

[4] = Quantum efficiency for one-photon photolysis (365 nm, HPLC); assay type: physicochemical; conditions: KMOPS, pH 7.2; for Qu (one-photon uncaging quantum efficiency): measured at 365 nm; for Sensitivity Qu × e: one-photon excitation, 365 nm, in M^-1·cm^-1
Procedure: The quantum efficiency of BHQ-ATP (159) decay and ATP recovery were determined by photolyzing a KMOPS solution of BHQ-ATP (159) (100 μM) with light from a 365 nm lamp through a set of filters that narrowed the band of light to a tight 30 nm range around 365 nm. Aliquots (20 μL) were taken out from the photolysis cuvette after a time interval of 0, 10, 20, 40, 60, or 90 secs, and HPLC analyses of these samples with a reverse phase C18 column and 85% 25 mM KH2PO4 buffer (pH=6.2)/15% methanol solvent system were carried out. The BHQ-ATP (159) peak (retention time=4.2 min.) and ATP peak (retention time=2.8 min.) were recorded and analyzed.
KMOPS-buffered solutions (3 mL) of the substrates (100 μM) in quartz cuvettes (21-Q-10, Starna, Atascadero, Calif.) were irradiated with 365 nm UV light from a mercury lamp (Spectroline SB-100P; Spectronics, Westbury, N.Y.) with a light filter. The spectral output of the lamp after the glass filters (CSO-52 and CS7-60, Ace Glass, Vineland, N.J.) has a band between 350 nm and 380 nm. The duration of each irradiation period ranged from 5 sec to 60 sec. After each period of irradiation, a 20 μL aliquot of the solution was removed for analysis by HPLC, using an external standard method to determine concentrations.
The analytes were eluted isocratically (flow rate of 1 mL/min) with acetonitrile and water containing 0.1% TFA (Table 1). The only exception is that BHQ-caged ATP was eluted with methanol and 25 mM KH2PO4 buffer (pH=6.2). The progress curves were plotted and fit to a single exponenial decay curve. The uncaging quantum efficiency (Qu) of each chromophore was calculated using Qu=(Iσt90%)^−1, where I is the radiant power in einstein·cm^−2s^−1, σ is the decadic extinction coefficient (10^3×ε, molar extinction coefficient) in cm^−2·mol^−1, and t90% is the irradiation time in s for 90% conversion to product (as described by Adams et al. (J. Am. Chem. Soc. (1988) 110: 3212-3220) incorporated herein by reference in its entirety). The UV intensity of the lamp was measured by potassium ferrioxalate actinometry (as described by Hatchard & Parker (Proc. Roy. Soc. London, Ser. A (1956) 235: 518-536) incorporated herein by reference in its entirety) in the same setup. ATP was monitored for its formation during the process, plotted, and fitted to an exponential rise to max curve.

[5] = Fluorescence spectra of quinoline chromophores in KMOPS; assay type: physicochemical; conditions: pH 7.2, excitation 365 nm
Procedure: The fluorescence spectra of BHQ-OAc, NHQ-OAc, CyHQ-OAc, CHQ-OAc, DMAQ-OAc, DMAQ-Cl-OAc, and TQ-OAc (15 μM in KMOPS, λex=365 nm) are shown in FIG. 18.

[6] = KMOPS, pH 7.2; value taken from Fedoryak & Dore, Org. Lett. 2002; cited from earlier work
[7] = KMOPS, pH 7.2; 740 nm; value taken from Fedoryak & Dore, Org. Lett. 2002; cited from earlier work
[8] = KMOPS, pH 7.2; 365 nm; value taken from Fedoryak & Dore, Org. Lett. 2002; cited from earlier work
[9] = KMOPS, pH 7.2; value taken from Fedoryak & Dore, Org. Lett. 2002; cited from earlier work; remark: listed apart in the source
renal Na,K-ATPase = molecular target: T1, renal Na,K-ATPase (Homo sapiens, UniProt P05023); conditions: incubated with renal Na,K-ATPase, Kaplan et al. 1978; cited from earlier work
T1 construct: host or cells: kidney (renal) enzyme, as reported by Kaplan et al. 1978

[10] = literature value; cited from earlier work
[11] = literature; cited from earlier work

τdark (time constant for hydrolysis in the dark) [1] [h]	ε (extinction coefficient at λmax) [2] [M⁻¹ cm⁻¹]	λmax [2] [nm]	δu (two-photon uncaging action cross-section) [3] [GM]	λa (calculated 2-photon absorbance cross-section) [3] [GM]	Qu (one-photon uncaging quantum efficiency) [4]	Sensitivity Qu × e [4]	λem [5] [nm]	Compound	other results
500	7700	364	0.32	1.0	0.31	2387	436	CC(=O)OCc1ccc2ccc(O)c(C#N)c2n1 [CyHQ-OAc (1b), (8-Cyano-7-hydroxyquinolin-2-yl)methyl acetate]	–
–	–	–	–	–	–	–	–	Nc1ncnc2c1ncn2C1OC(COP(=O)(O)OP(=O)(O)OP(=O)(O)OCc2ccccc2[N+](=O)[O-])C(O)C1O (stereo not drawn) [NB-ATP, 2-nitrobenzyl ester of ATP]	substrate or inhibitor of Na,K-ATPase before irradiation (renal Na,K-ATPase): neither a substrate nor inhibitor of this enzyme
49	2800	370	0.12	1.2	0.10	280	492	CC(=O)OCc1ccc2ccc(O)c(Cl)c2n1 [CHQ-OAc (1c), (8-Chloro-7-hydroxyquinolin-2-yl)methyl acetate]	–
–	–	–	–	–	–	–	–	CC(OP(=O)(O)OP(=O)(O)OP(=O)(O)OCC1OC(n2cnc3c(N)ncnc32)C(O)C1O)c1ccccc1[N+](=O)[O-] (stereo not drawn) [NPE-ATP, P^3-1-(2-nitrophenyl)ethyl ester of ATP]	ATP release rate [10]: 118 s⁻¹
278	6500	350	0.00	–	0.00	0	–	CC(=O)OCc1ccc2ccc(O)c([N+](=O)[O-])c2n1 [NHQ-OAc (1a), 7-Hydroxy-8-nitroquinolin-2-yl methyl acetate]	–
34	3300	386	0.47	5.2	0.090	234	493	CC(=O)OCc1cc(Cl)c2ccc(N(C)C)cc2n1 [DMAQ-Cl—OAc (2b), (4-Chloro-7-(dimethylamino)quinolin-2-yl)methyl acetate]	–
31	4600	368	0.13	2.8	0.046	211	496	CC(=O)OCc1ccc2ccc(N(C)C)cc2n1 [DMAQ-OAc (2a), (7-(Dimethylamino)quinolin-2-yl)methyl acetate]	–
–	–	–	–	–	–	–	–	COc1cc(C(C)OP(=O)(O)OP(=O)(O)OP(=O)(O)OC[C@H]2O[C@@H](n3cnc4c(N)ncnc43)[C@H](O)[C@@H]2O)c([N+](=O)[O-])cc1OC (stereo partly drawn) [DMNPE-ATP]	λmax [11]: 350 nm
–	–	–	–	–	–	–	–	CN(C)c1ccc2c(COP(=O)(O)OP(=O)(O)OP(=O)(O)OCC3OC(n4cnc5c(N)ncnc54)C(O)C3O)cc(=O)oc2c1 (stereo not drawn) [DMACM-caged ATP, [7-(dimethylamino)coumarin-4-yl]methyl ATP]	ATP release rate [10]: 1.6e+09 s⁻¹
–	–	–	–	–	–	–	–	COc1cc(OC)cc(C(OP(=O)(O)OP(=O)(O)OP(=O)(O)OCC2OC(n3cnc4c(N)ncnc43)C(O)C2O)C(=O)c2ccccc2)c1 (stereo not drawn) [DMB-ATP, P^3-[1-(3,5-dimethoxyphenyl)-2-phenyl-2-oxo]ethyl ester of ATP]	ATP release rate [10]: > 10^5 sec^−1

Compound	τdark (time constant for hydrolysis in the dark) [1] [h]	ε (extinction coefficient at λmax) [2] [M⁻¹ cm⁻¹]	λmax [2] [nm]	δu (two-photon uncaging action cross-section) [3] [GM]	λa (calculated 2-photon absorbance cross-section) [3] [GM]	Qu (one-photon uncaging quantum efficiency) [4]	Sensitivity Qu × e [4]	λem [5] [nm]	other results
CC(=O)OCc1ccc2ccc(O)c(Br)c2n1 [BHQ-OAc]	–	–	–	–	2.0	–	754	478	ε [6]: 2600^g M^−1 · cm^−1; λmax [6]: 369^g nm; δu (two-photon uncaging action cross-section) [7]: 0.59^g GM; Qu (one-photon uncaging quantum efficiency) [8]: 0.29^g; τdark (time constant for hydrolysis in the dark) [9]: 71^g h
